Data as given in US20080254993A1, “Use of abscisic acid analogs to enhance growth control” (priority 2007, published 2008).

Key:
creeping bentgrass = experiment: Golf course green field study on creeping bentgrass with PBI-429: turfgrass height, soil moisture, turf quality (Example 2); assay type: in vivo, Penncross creeping bentgrass; details: for Soil moisture / Turfgrass height / Turf quality: 25 ppm trinexapac-ethyl alone; for Turfgrass height (in words) / Soil moisture (in words): trinexapac-ethyl 25 ppm, PBI-429 50 ppm, alone or combined; for Turf quality: visual 0-9 scale, 9 best
Experimental: Field studies were conducted at the nursery green or the practice green at Countryside golf course (Mundelein, Ill.). Both greens were sand based and growing Penncross creeping bentgrass. Grass was managed with typical Illinois golf course management practices.
Chemical solutions were prepared with distilled water. Tween 20 (0.05% v/v) was used as the surfactant when necessary. Trinexapac-ethyl (commercial product Primo Maxx, 11.3% active ingredient) was purchased from Syngenta Crop Protection Inc. (Greensboro, N.C.). ABA analogs, 8′ acetylene-ABA, acid (PBI-524), 8′ acetylene-ABA, ester (PBI-429), 8′ cyclopropane ester (PBI-696), or Tetralone, first carbon tail acetylene, ester (PBI-702), were obtained from Plant Biotechnology Institute, National Research Council of Canada (Saskatoon, Saskatchewan, Canada).
Chemical solutions were foliar applied to the turfgrass canopy at the rate of 4-gallons/1000 square foot (or 0.163 L/m^−2) immediately after finishing the preparation of solutions. After treatment, turfgrasses were arranged in a randomized complete block experimental design. Turfgrass quality, turfgrass height or clip fresh weight was measured on assigned dates. Turfgrass quality was visually rated on a 0-9 scale based on the color, uniformity, and density of the grass with 0 as the worst and 9 as the best. Turfgrass height was measured as the distance between canopy surface and soil. Clippings were collected form each plot; all plots were cut to a uniform height.
All experiments were randomized complete block experimental design. Data were analyzed by analysis of variance. Duncan's new multiple range tests at α=0.05 were used for mean separations.
Trinexapac-ethyl (25 ppm) or PBI-429 (50 ppm) were one time foliar applied alone or in combination to creeping bentgrass in the golf course green to investigate their effect on turfgrass quality, growth inhibition and soil moisture.

tomato [1] = experiment: Tomato leaf transpiration, greenhouse, porometer (Example 5); assay type: in vivo, Tomato (variety: Rutgers)
From the text: (§1) The effect of ABA analog (PBI-429) and trinexapac-ethyl combinations on transpiration and growth inhibition of dicotyledonous (tomato) was also examined in the greenhouse condition. Tomato (variety: Rutgers) seeds were sown in 18-cell flat filled with Promix PGX (available from Premier Horticulture Inc. Quakertown, Pa.) and grown for 3 weeks to allow for germination and initial growth. Plants were then transplanted into pots (18 cm in diameter and 18 cm in height), filled with Promix BX (available from Premier Horticulture Inc. Quakertown, Pa.), and grown for one week before the chemical treatment. Plants received daily irrigation and weekly fertilizer (1 g/L all purpose fertilizer 20-20-20, available from The Scotts Company, Marysville, Ohio). During the chemical treatment, a 24 mL (4 mL/plant) solution was foliar sprayed on the tomato canopy. Leaf transpiration rates were measured using a LI-1600 Steady State Porometer (LI-Cor, Lincoln, Nebr.) at 3, 5, 7, 10, and 14 days after treatment. The leaf transpiration rate was normalized to the percentage of control plant to minimize the experimental errors caused by environmental factors. Plant height was measured at 0, 3, 5, 7, 10 and 14 days after treatment. The growth rate was calculated based on the changes of plant height in certain intervals. The plants were harvested and the leaf number was counted at 14 days after treatment.

tomato [2] = experiment: Tomato plant height, growth rate and leaf number, greenhouse (Example 5); assay type: in vivo, Tomato (variety: Rutgers)
From the text: as §1

[3] = 250 ppm trinexapac-ethyl, 3 days after treatment
[4] = 250 ppm trinexapac-ethyl, 5 days after treatment
[5] = 250 ppm trinexapac-ethyl, 7 days after treatment
[6] = 250 ppm trinexapac-ethyl, 10 days after treatment
[7] = 250 ppm trinexapac-ethyl, 14 days after treatment
[8] = 500 ppm trinexapac-ethyl, 3 days after treatment
[9] = 500 ppm trinexapac-ethyl, 5 days after treatment
[10] = 500 ppm trinexapac-ethyl, 7 days after treatment
[11] = 500 ppm trinexapac-ethyl, 10 days after treatment
[12] = 500 ppm trinexapac-ethyl, 14 days after treatment
[13] = 1000 ppm trinexapac-ethyl, 3 days after treatment
[14] = 1000 ppm trinexapac-ethyl, 5 days after treatment
[15] = 1000 ppm trinexapac-ethyl, 7 days after treatment
[16] = 1000 ppm trinexapac-ethyl, 10 days after treatment
[17] = 1000 ppm trinexapac-ethyl, 14 days after treatment
[18] = 2000 ppm trinexapac-ethyl, 3 days after treatment
[19] = 2000 ppm trinexapac-ethyl, 5 days after treatment
[20] = 2000 ppm trinexapac-ethyl, 7 days after treatment
[21] = 2000 ppm trinexapac-ethyl, 10 days after treatment
[22] = 2000 ppm trinexapac-ethyl, 14 days after treatment
[23] = PBI-429 25-200 ppm, trinexapac-ethyl 250-2000 ppm, alone or combined

`CCOC(=O)C1CC(=O)C(=C(O)C2CC2)C(=O)C1` (stereo not shown) [trinexapac-ethyl, reference compound] was tested, and the Soil moisture (creeping bentgrass; 4 days after treatment) was 11.2%, the Turfgrass height (creeping bentgrass; 4 days after treatment) was 7.3 mm and the “Turfgrass height (in words)” value (creeping bentgrass; 4 days after treatment) was “did not reduce creeping bentgrass height”. For the same compound, the Soil moisture (creeping bentgrass; 7 days after treatment) was 12.7%, the Turfgrass height (creeping bentgrass; 7 days after treatment) was 6.5 mm and the Turf quality (creeping bentgrass; 7 days after treatment) was 7.3. For the same compound, the “Soil moisture (in words)” value (creeping bentgrass; 7 days after treatment) was “increase soil moisture”, the “Turfgrass height (in words)” value (creeping bentgrass; 7 days after treatment) was “reduced turfgrass height similarly” and the Soil moisture (creeping bentgrass; 38 days after treatment) was 12.4%. The Turfgrass height (creeping bentgrass; 38 days after treatment) was 6.0 mm, the Turf quality (creeping bentgrass; 38 days after treatment) was 7.6 and the “Soil moisture (in words)” value (creeping bentgrass; 38 days after treatment) was “no longer effective”. For the same compound, the “Turfgrass height (in words)” value (creeping bentgrass; 38 days after treatment) was “no longer effective”, the Transpiration (tomato [1]; [3]) was 95 % of control and the Transpiration (tomato [1]; [4]) was 95 % of control. The Transpiration (tomato [1]; [5]) was 94 % of control, the Transpiration (tomato [1]; [6]) was 94 % of control and the Transpiration (tomato [1]; [7]) was 100 % of control. The Transpiration (tomato [1]; [8]) was 94 % of control, the Transpiration (tomato [1]; [9]) was 101 % of control and the Transpiration (tomato [1]; [10]) was 94 % of control. For the same compound, the Transpiration (tomato [1]; [11]) was 97 % of control, the Transpiration (tomato [1]; [12]) was 97 % of control and the Transpiration (tomato [1]; [13]) was 100 % of control. The Transpiration (tomato [1]; [14]) was 95 % of control, the Transpiration (tomato [1]; [15]) was 94 % of control and the Transpiration (tomato [1]; [16]) was 101 % of control. The Transpiration (tomato [1]; [17]) was 100 % of control, the Transpiration (tomato [1]; [18]) was 94 % of control and the Transpiration (tomato [1]; [19]) was 96 % of control. The Transpiration (tomato [1]; [20]) was 93 % of control, the Transpiration (tomato [1]; [21]) was 91 % of control and the Transpiration (tomato [1]; [22]) was 96 % of control. The “Tomato leaf transpiration (in words)” value (tomato [1]; PBI-429 25-200 ppm, trinexapac-ethyl 250-2000 ppm, alone or combined, 3-14 days after treatment) was “did not significantly inhibited tomato leaf transpiration”, the Plant height (tomato [2]; 250 ppm trinexapac-ethyl, 0 days after treatment) was 6.4 cm and the Growth rate (tomato [2]; [3]) was 1.2 cm/day. It also gave a Plant height (tomato [2]; [3]) of 9.9 cm, a Growth rate (tomato [2]; [4]) of 1.0 cm/day and a Plant height (tomato [2]; [4]) of 11.9 cm. The Growth rate (tomato [2]; [5]) was 1.6 cm/day, the Plant height (tomato [2]; [5]) was 15.1 cm and the Growth rate (tomato [2]; [6]) was 1.5 cm/day. For the same compound, the Plant height (tomato [2]; [6]) was 19.6 cm, the Growth rate (tomato [2]; [7]) was 1.8 cm/day and the Leaf number (tomato [2]; [7]) was 11.0. It also gave a Plant height (tomato [2]; [7]) of 26.9 cm, a Plant height (tomato [2]; 500 ppm trinexapac-ethyl, 0 days after treatment) of 6.5 cm and a Growth rate (tomato [2]; [8]) of 0.9 cm/day. The Plant height (tomato [2]; [8]) was 9.3 cm, the Growth rate (tomato [2]; [9]) was 0.8 cm/day and the Plant height (tomato [2]; [9]) was 10.9 cm. The Growth rate (tomato [2]; [10]) was 1.2 cm/day, the Plant height (tomato [2]; [10]) was 13.3 cm and the Growth rate (tomato [2]; [11]) was 1.4 cm/day. It also gave a Plant height (tomato [2]; [11]) of 17.4 cm, a Growth rate (tomato [2]; [12]) of 1.8 cm/day and a Leaf number (tomato [2]; [12]) of 11.0. It also gave a Plant height (tomato [2]; [12]) of 24.4 cm, a Plant height (tomato [2]; 1000 ppm trinexapac-ethyl, 0 days after treatment) of 6.5 cm and a Growth rate (tomato [2]; [13]) of 0.7 cm/day. For the same compound, the Plant height (tomato [2]; [13]) was 8.9 cm, the Growth rate (tomato [2]; [14]) was 0.7 cm/day and the Plant height (tomato [2]; [14]) was 10.3 cm. The Growth rate (tomato [2]; [15]) was 1.0 cm/day, the Plant height (tomato [2]; [15]) was 12.3 cm and the Growth rate (tomato [2]; [16]) was 1.2 cm/day. It also gave a Plant height (tomato [2]; [16]) of 15.8 cm, a Growth rate (tomato [2]; [17]) of 1.8 cm/day and a Leaf number (tomato [2]; [17]) of 11.0. The Plant height (tomato [2]; [17]) was 22.8 cm, the Plant height (tomato [2]; 2000 ppm trinexapac-ethyl, 0 days after treatment) was 6.7 cm and the Growth rate (tomato [2]; [18]) was 0.6 cm/day. It also gave a Plant height (tomato [2]; [18]) of 7.9 cm, a Growth rate (tomato [2]; [19]) of 0.6 cm/day and a Plant height (tomato [2]; [19]) of 9.1 cm. For the same compound, the Growth rate (tomato [2]; [20]) was 0.8 cm/day, the Plant height (tomato [2]; [20]) was 10.7 cm and the Growth rate (tomato [2]; [21]) was 1.0 cm/day. The Plant height (tomato [2]; [21]) was 13.6 cm, the Growth rate (tomato [2]; [22]) was 1.2 cm/day and the Leaf number (tomato [2]; [22]) was 10.8. The Plant height (tomato [2]; [22]) was 18.3 cm, the “Tomato leaf number (in words)” value (tomato [2]; 14 days after treatment, PBI-429 25-200 ppm, trinexapac-ethyl 250-2000 ppm, alone or combined) was “did not change the tomato leaf number” and the “Tomato growth rate in terms of plant height (in words)” value (tomato [2]; [23]) was “inhibited growth rate”. The “Tomato plant height (in words)” value (tomato [2]; [23]) was “decreased tomato plant height”.
